These results are taken from patent publication US9670227B2, “Thienopyrimidine derivatives, a process for their preparation and pharmaceutical compositions containing them” (LES LABORATOIRES SERVIER, priority 2013, dated 2017).

The target of one assay is Mcl-1 protein (UniProtKB primary accession number: Q07820) (Homo sapiens, UniProt Q07820). The assay can be described thus: Inhibition of Mcl-1 by fluorescence polarisation, Method 1. The class given is binding. Particulars: read-out: IC50 (M) Mcl-1 FP. A digest of the protocol: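 FP competition, 11-point compound titration in 5% final DMSO; protein and labelled probe at 5 nM and 1 nM final in HEPES/NaCl/Tween 20 buffer, pH 7.4.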
Mcl-1 protein, sequence (Q07820 whole entry): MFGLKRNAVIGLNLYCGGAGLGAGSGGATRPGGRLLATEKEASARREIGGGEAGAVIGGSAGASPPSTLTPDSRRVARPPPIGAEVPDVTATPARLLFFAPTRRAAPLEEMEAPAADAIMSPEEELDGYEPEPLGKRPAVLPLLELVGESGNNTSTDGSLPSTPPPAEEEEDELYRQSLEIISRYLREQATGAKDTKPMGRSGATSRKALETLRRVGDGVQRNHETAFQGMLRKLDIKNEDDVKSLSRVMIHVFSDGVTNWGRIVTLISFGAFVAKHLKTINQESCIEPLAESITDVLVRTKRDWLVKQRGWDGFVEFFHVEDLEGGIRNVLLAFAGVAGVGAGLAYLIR
On the technique in general: In fluorescence polarisation assays a small probe gives low polarisation when free and higher when bound to something large.

For assay [1], the system named is H929 multiple myeloma tumour line. The assay can be described thus: In vitro cytotoxicity, Microculture Tetrazolium Assay. It is filed as cell-based. The settings on record: H929 cells, 48 hours exposure, MTT, read-out: IC50 (μM) MTT H929. The method, then: The cytotoxicity studies were carried out on the H929 multiple myeloma tumour line.
The cells are distributed onto microplates and exposed to the test compounds for 48 hours.

Setting [2] is: fluorescence polarisation test, Method 2 values are underlined in the patent (underlining not visible here).
The mark [3] stands for this setting: fluorescence polarisation, Method 1, or Method 2.

SMILES strings stand for the structures. Where two headings read alike, the source gives them in different places.

The IC50 is the point on the concentration scale where inhibition reaches its midpoint. Turning to `Cc1c(-c2c(-c3ccc(F)cc3)sc3ncnc(OC(Cc4ccccc4OCc4ccnn4C4CCOCC4)C(=O)O)c23)ccc(OCCN2CCN(C)CC2)c1Cl` [Example 75, (2R)-2-{[(5Sa)-5-{3-chloro-2-methyl-4-[2-(4-methylpiperazin-1-yl)ethoxy]phenyl}-6-(4-fluorophenyl)thieno[2,3-d]pyrimidin-4-yl]oxy}-3-(2-{[1-(tetrahydro-2H-pyran-4-yl)-1H-pyrazol-5-yl]methoxy}phenyl)propanoic acid], the IC50 on Mcl-1 protein (setting [2]) came to 4e-09 M; in assay [1] (Homo sapiens, NCI-H929, 48 h), 0.11 µM.
Turning to `CCc1sc2ncnc(OC(Cc3ccccc3)C(=O)O)c2c1-c1cc(Cl)c(OCCN2CCN(C)CC2)c(Cl)c1C` [Example 436, (2R)-2-[((5Sa)-5-{3,5-dichloro-2-methyl-4-[2-(4-methylpiperazin-1-yl)ethoxy]phenyl}-6-ethylthieno[2,3-d]pyrimidin-4-yl)oxy]-3-phenylpropanoic acid], the IC50 on Mcl-1 protein (setting [3]) turned out to be 2.9e-08 M; in assay [1] (Homo sapiens, NCI-H929, 48 h), 15.1 µM.
In the case of `Cc1c(-c2c(-c3ccco3)sc3ncnc(OC(Cc4ccccc4OCc4cncnc4)C(=O)O)c23)ccc(OCCN2CCN(C)CC2)c1Cl` [Example 277, (2R)-2-{[(5Sa)-5-{3-chloro-2-methyl-4-[2-(4-methylpiperazin-1-yl)ethoxy]phenyl}-6-(furan-2-yl)thieno[2,3-d]pyrimidin-4-yl]oxy}-3-[2-(pyrimidin-5-ylmethoxy)phenyl]propanoic acid], the 50% inhibitory concentration (IC50) on Mcl-1 protein (setting [2]) came out at 4.8e-09 M; in assay [1] (Homo sapiens, NCI-H929, 48 h) it was 0.07 µM.
For `CCc1sc2ncnc(OC(Cc3ccccc3)C(=O)O)c2c1-c1cc2nc(CN3CCN(C)CC3)oc2c(Cl)c1C` [Example 445, (2R)-2-[((5Sa)-5-{7-chloro-6-methyl-2-[(4-methylpiperazin-1-yl)methyl]-1,3-benzoxazol-5-yl}-6-ethylthieno[2,3-d]pyrimidin-4-yl)oxy]-3-phenylpropanoic acid], the IC50 at Mcl-1 protein (setting [3]) worked out at 1.3e-07 M; in assay [1] (Homo sapiens, NCI-H929, 48 h), 21 µM.
As to `COc1ccccc1-c1nccc(COc2ccccc2CC(Oc2ncnc3sc(-c4ccc(OCc5cccs5)cc4)c(-c4ccc(OCCN5CCN(C)CC5)c(Cl)c4C)c23)C(=O)O)n1` [Example 777, (2R)-2-[((5Sa)-5-{3-chloro-2-methyl-4-[2-(4-methylpiperazin-1-yl)ethoxy]phenyl}-6-[4-(thiophen-2-ylmethoxy)phenyl]thieno[2,3-d]pyrimidin-4-yl)oxy]-3-(2-{[2-(2-methoxyphenyl)pyrimidin-4-yl]methoxy}phenyl)propanoic acid], the IC50 at Mcl-1 protein (setting [3]) came to 1.12e-09 M; in assay [1] (Homo sapiens, NCI-H929, 48 h), 0.008 µM.
Consider `COc1cc(-c2nccc(COc3ccccc3CC(Oc3ncnc4sc(-c5ccc(F)cc5)c(-c5ccc(OCCN6CCN(C)CC6)c(Cl)c5C)c34)C(=O)O)n2)ccn1` [Example 735, (2R)-2-{[(5Sa)-5-{3-chloro-2-methyl-4-[2-(4-methylpiperazin-1-yl)ethoxy]phenyl}-6-(4-fluorophenyl)thieno[2,3-d]pyrimidin-4-yl]oxy}-3-(2-{[2-(2-methoxypyridin-4-yl)pyrimidin-4-yl]methoxy}phenyl)propanoic acid], for which the half-maximal inhibitory concentration (IC50) on Mcl-1 protein (setting [3]) was found to be 9.48e-10 M; in assay [1] (Homo sapiens, NCI-H929, 48 h), 0.007 µM.
In the case of `COCCOCCOc1ccccc1CC(Oc1ncnc2sc(-c3ccc(F)o3)c(-c3ccc(OCCN4CCN(C)CC4)c(Cl)c3C)c12)C(=O)O` [Example 196, (2R)-2-{[(5Sa)-5-{3-chloro-2-methyl-4-[2-(4-methylpiperazin-1-yl)ethoxy]phenyl}-6-(5-fluorofuran-2-yl)thieno[2,3-d]pyrimidin-4-yl]oxy}-3-{2-[2-(2-methoxyethoxy)ethoxy]phenyl}propanoic acid], the IC50 is 5.6e-09 M at Mcl-1 protein (setting [2]) and 0.076 µM in assay [1] (Homo sapiens, NCI-H929, 48 h).
Take `COc1ccccc1CC(Oc1ncnc2sc(-c3ccc(F)c(Cl)c3)c(-c3ccc(OCCN4CCN(C)CC4)c(Cl)c3C)c12)C(=O)O` [Example 532, (2R)-2-{[6-(3-chloro-4-fluorophenyl)-(5Sa)-5-{3-chloro-2-methyl-4-[2-(4-methylpiperazin-1-yl)ethoxy]phenyl}thieno[2,3-d]pyrimidin-4-yl]oxy}-3-(2-methoxyphenyl)propanoic acid]: the IC50 on Mcl-1 protein (setting [3]) is 5.9e-08 M; in assay [1] (Homo sapiens, NCI-H929, 48 h), 0.323 µM.
Turning to `CCc1sc2ncnc(OC(Cc3ccccc3)C(=O)O)c2c1-c1ccc(OCCN2CCC(O)CC2)c(Cl)c1C` [Example 413, (2R)-2-[((5Sa)-5-{3-chloro-4-[2-(4-hydroxypiperidin-1-yl)ethoxy]-2-methylphenyl}-6-ethylthieno[2,3-d]pyrimidin-4-yl)oxy]-3-phenylpropanoic acid], the IC50 at Mcl-1 protein (setting [3]) was found to be 1.3e-08 M; in assay [1] (Homo sapiens, NCI-H929, 48 h), 15.8 µM.
As for `Cc1c(-c2c(-c3ccc(F)cc3)sc3ncnc(OC(Cc4ccccc4OCC4CCCO4)C(=O)O)c23)ccc(OCCN(C)C)c1Cl` [Example 126, (2R)-2-{[(5Sa)-5-{3-chloro-4-[2-(dimethylamino)ethoxy]-2-methylphenyl}-6-(4-fluorophenyl)thieno[2,3-d]pyrimidin-4-yl]oxy}-3-{2-[(2R)-tetrahydrofuran-2-ylmethoxy]phenyl}propanoic acid], the half-maximal inhibitory concentration (IC50) came out at 1.4e-08 M at Mcl-1 protein (setting [2]) and 0.7 µM in assay [1] (Homo sapiens, NCI-H929, 48 h).
As for `Cc1c(-c2c(-c3ccco3)sc3ncnc(OC(Cc4ccccc4OCC(=O)Nc4ccccc4)C(=O)O)c23)ccc(OCCN2CCN(C)CC2)c1Cl` [Example 219, (2R)-2-{[(5Sa)-5-{3-chloro-2-methyl-4-[2-(4-methylpiperazin-1-yl)ethoxy]phenyl}-6-(furan-2-yl)thieno[2,3-d]pyrimidin-4-yl]oxy}-3-{2-[2-oxo-2-(phenylamino)ethoxy]phenyl}propanoic acid], the IC50 on Mcl-1 protein (setting [2]) was 9.9e-09 M; in assay [1] (Homo sapiens, NCI-H929, 48 h), 0.191 µM.
With `COc1ccccc1CC(Oc1ncnc2sc(-c3ccc(F)cc3)c(-c3ccc(OCCN4CCN(C)CC4)c(Br)c3C)c12)C(=O)O` [Example 646, (2R)-2-{[(5Sa)-5-{3-bromo-2-methyl-4-[2-(4-methylpiperazin-1-yl)ethoxy]phenyl}-6-(4-fluorophenyl)thieno[2,3-d]pyrimidin-4-yl]oxy}-3-(2-methoxyphenyl)propanoic acid], the IC50 on Mcl-1 protein (setting [3]) was 2.1e-08 M; in assay [1] (Homo sapiens, NCI-H929, 48 h) it was 0.298 µM.
For `COc1nccc(COc2ccccc2CC(Oc2ncnc3sc(-c4cccc(F)c4F)c(-c4ccc(OCCN5CCN(C)CC5)c(Cl)c4C)c23)C(=O)O)n1` [Example 703, (2R)-2-{[(5Sa)-5-{3-chloro-2-methyl-4-[2-(4-methylpiperazin-1-yl)ethoxy]phenyl}-6-(2,3-difluorophenyl)thieno[2,3-d]pyrimidin-4-yl]oxy}-3-{2-[(2-methoxypyrimidin-4-yl)methoxy]phenyl}propanoic acid], the IC50 on Mcl-1 protein (setting [3]) worked out at 9.3e-09 M; in assay [1] (Homo sapiens, NCI-H929, 48 h), 0.03 µM.
As for `COc1ccccc1CC(Oc1ncnc2sc(-c3ccc(C#N)o3)c(-c3ccc(OCCN4CCN(C)CC4)c(Cl)c3C)c12)C(=O)O` [Example 579, (2R)-2-{[(5Sa)-5-{3-chloro-2-methyl-4-[2-(4-methylpiperazin-1-yl)ethoxy]phenyl}-6-(5-cyanofuran-2-yl)thieno[2,3-d]pyrimidin-4-yl]oxy}-3-(2-methoxyphenyl)propanoic acid], the half-maximal inhibitory concentration (IC50) stood at 8.5e-09 M on Mcl-1 protein (setting [3]) and 0.463 µM in assay [1] (Homo sapiens, NCI-H929, 48 h).
Take `Cc1c(-c2c(-c3ccco3)sc3ncnc(OC(Cc4ccccc4OC(C)c4ccncc4)C(=O)O)c23)ccc(OCCN2CCN(C)CC2)c1Cl` [Example 208, (2R)-2-{[(5Sa)-5-{3-chloro-2-methyl-4-[2-(4-methylpiperazin-1-yl)ethoxy]phenyl}-6-(furan-2-yl)thieno[2,3-d]pyrimidin-4-yl]oxy}-3-{2-[(1R)-1-(pyridin-4-yl)ethoxy]phenyl}propanoic acid]: the IC50 stood at 5.5e-09 M at Mcl-1 protein (setting [2]) and 0.571 µM in assay [1] (Homo sapiens, NCI-H929, 48 h).
Turning to `Cc1c(-c2c(-c3ccc(F)cc3)sc3ncnc(OC(Cc4ccccc4OCC(F)(F)F)C(=O)O)c23)ccc(OCC2CCCN2C)c1Cl` (single isomer, unassigned) [Example 658, (2R)-2-{[(5Sa)-5-{3-chloro-2-methyl-4-[((2S or R)-1-methylpyrrolidin-2-yl)methoxy]phenyl}-6-(4-fluorophenyl)thieno[2,3-d]pyrimidin-4-yl]oxy}-3-[2-(2,2,2-trifluoroethoxy)phenyl]propanoic acid], the half-maximal inhibitory concentration (IC50) at Mcl-1 protein (setting [3]) amounted to 1.8e-08 M; in assay [1] (Homo sapiens, NCI-H929, 48 h), 1.71 µM.
On to `CCn1nccc1COc1ccccc1CC(Oc1ncnc2sc(-c3cccc(F)c3F)c(-c3ccc(OCCN4CCN(C)CC4)c(Cl)c3C)c12)C(=O)O` [Example 704, (2R)-2-{[(5Sa)-5-{3-chloro-2-methyl-4-[2-(4-methylpiperazin-1-yl)ethoxy]phenyl}-6-(2,3-difluorophenyl)thieno[2,3-d]pyrimidin-4-yl]oxy}-3-{2-[(1-ethyl-1H-pyrazol-5-yl)methoxy]phenyl}propanoic acid], for which the IC50 was found to be 9.9e-09 M on Mcl-1 protein (setting [3]) and 0.025 µM in assay [1] (Homo sapiens, NCI-H929, 48 h).
As to `COc1ccc(-c2sc3ncnc(OC(Cc4ccccc4OCc4ccnc(-c5ccccc5OC)n4)C(=O)O)c3c2-c2ccc(OCCN3CCN(C)CC3)c(Cl)c2C)cc1` (single isomer, unassigned) [Example 760], the IC50 came to 1.18e-09 M on Mcl-1 protein (setting [3]) and 0.004 µM in assay [1].
For the compound `COc1ccccc1CC(Oc1ncnc2sc(-c3ccco3)c(-c3ccc(OC4CN5CCC4CC5)c(Cl)c3C)c12)C(=O)O` (single isomer, unassigned) [Example 307, (2R)-2-({(5Sa)-5-[4-((3S or R)-1-azabicyclo[2.2.2]oct-3-yloxy)-3-chloro-2-methylphenyl]-6-(furan-2-yl)thieno[2,3-d]pyrimidin-4-yl}oxy)-3-(2-methoxyphenyl)propanoic acid], the half-maximal inhibitory concentration (IC50) was 8.3e-09 M at Mcl-1 protein (setting [2]) and 0.998 µM in assay [1] (Homo sapiens, NCI-H929, 48 h).
